Tests used:
[1] = tested on: Rattus norvegicus; test: Hypolipidemic activity in CFY Sprague-Dawley rat assessed as serum triglyceride level at 0.25% dietary level administered for 7 days relative to control; type: functional
[2] = tested on: Rattus norvegicus; test: Toxicity in CFY Sprague-Dawley rat assessed as body weight gain at 0.25% dietary level administered for 7 days relative to control; type: organism-based; settings: in vivo, po, 168 h
[3] = tested on: Rattus norvegicus; test: Toxicity in CFY Sprague-Dawley rat assessed as relative liver weight at 0.25% dietary level administered for 7 days relative to control; type: organism-based; settings: in vivo, po, 168 h
[4] = tested on: Rattus norvegicus; test: Toxicity in CFY Sprague-Dawley rat assessed as body weight gain at 0.2% dietary level administered for 7 days relative to control; type: organism-based; settings: in vivo, po, 168 h
[5] = tested on: Rattus norvegicus; test: Toxicity in CFY Sprague-Dawley rat assessed as relative liver weight at 0.2% dietary level administered for 7 days relative to control; type: organism-based; settings: in vivo, po, 168 h
[6] = tested on: Rattus norvegicus; test: Hypolipidemic activity in CFY Sprague-Dawley rat assessed as liver lipid per gm of liver at 1% dietary level administered for 7 days relative to control; type: functional
[7] = tested on: Rattus norvegicus; test: Hypolipidemic activity in CFY Sprague-Dawley rat assessed as serum cholesterol level at 1% dietary level administered for 7 days relative to control; type: functional
[8] = tested on: Rattus norvegicus; test: Toxicity in CFY Sprague-Dawley rat assessed as body weight gain at 1% dietary level administered for 7 days relative to control; type: organism-based; settings: in vivo, po, 168 h
[9] = tested on: Rattus norvegicus; test: Hypolipidemic activity in CFY Sprague-Dawley rat assessed as serum triglyceride level at 1% dietary level administered for 7 days relative to control; type: functional
[10] = tested on: Rattus norvegicus; test: Hypolipidemic activity in CFY Sprague-Dawley rat assessed as liver lipid per gm of liver at 0.2% dietary level administered for 7 days relative to control; type: functional
[11] = tested on: Rattus norvegicus; test: Hypolipidemic activity in CFY Sprague-Dawley rat assessed as liver lipid per gm of liver at 0.25% dietary level administered for 7 days relative to control; type: functional
[12] = tested on: Rattus norvegicus; test: Hypolipidemic activity in CFY Sprague-Dawley rat assessed as serum cholesterol level at 0.25% dietary level administered for 7 days relative to control; type: functional
[13] = tested on: Rattus norvegicus; test: Hypolipidemic activity in CFY Sprague-Dawley rat assessed as serum cholesterol level at 0.2% dietary level administered for 7 days relative to control; type: functional
[14] = tested on: Rattus norvegicus; test: Hypolipidemic activity in CFY Sprague-Dawley rat assessed as serum triglyceride level at 0.2% dietary level administered for 7 days relative to control; type: functional
[15] = tested on: Liver; test: Inhibition of fatty acid biosynthesis from [1-14C]acetate in rat liver slices at 5 X 10^-4 M relative to control; type: functional
[16] = tested on: Liver; test: Inhibition of cholesterol biosynthesis from [1-14C]acetate in rat liver slices at […] relative to control; type: functional
[17] = tested on: Rattus norvegicus; test: Toxicity in CFY Sprague-Dawley rat assessed as relative liver weight at 1% dietary level administered for 7 days relative to control; type: organism-based; settings: in vivo, po, 168 h
[18] = tested on: Liver; test: Inhibition of fatty acid biosynthesis from [1-14C]acetate in rat liver slices at 1 X 10^-4 M relative to control; type: functional
[19] = tested on: Liver; test: Inhibition of cholesterol biosynthesis from [1-14C]acetate in rat liver slices at 1 X 10^-4 M relative to control; type: functional
[20] = tested on: Liver; test: Inhibition of fatty acid biosynthesis from [1-14C]acetate in rat liver slices at 1 X 10^-3 M relative to control; type: functional
[21] = tested on: Liver; test: Inhibition of cholesterol biosynthesis from [1-14C]acetate in rat liver slices at 1 X 10^-3 M relative to control; type: functional
[22] = tested on: Rattus norvegicus; test: Toxicity in CFY Sprague-Dawley rat assessed as body weight gain at 0.1% dietary level administered for 7 days relative to control; type: organism-based; settings: in vivo, po, 168 h
[23] = tested on: Rattus norvegicus; test: Hypolipidemic activity in CFY Sprague-Dawley rat assessed as serum cholesterol level at 0.1% dietary level administered for 7 days relative to control; type: functional
[24] = tested on: Rattus norvegicus; test: Toxicity in CFY Sprague-Dawley rat assessed as relative liver weight at 0.1% dietary level administered for 7 days relative to control; type: organism-based; settings: in vivo, po, 168 h
[25] = tested on: Rattus norvegicus; test: Hypolipidemic activity in CFY Sprague-Dawley rat assessed as serum triglyceride level at 0.1% dietary level administered for 7 days relative to control; type: functional
[26] = tested on: Rattus norvegicus; test: Hypolipidemic activity in CFY Sprague-Dawley rat assessed as liver lipid per gm of liver at 0.1% dietary level administered for 7 days relative to control; type: functional

Structure (SMILES) | Activity [1] | Activity [2] | Activity [3] | Activity [11] | Activity [12] | inhibition at 500 µM [15] | inhibition at 500 µM [16] | also measured
O=C(O)c1ccc(OCc2ccccc2)cc1 | -65% | -5% | 10% | -4% | -23% | 65% | 92% | Activity [4]: -13%; Activity [5]: 0%; Activity [6]: 1%; Activity [7]: -24%; Activity [8]: -62%; Activity [9]: -34%; Activity [10]: 8%; Activity [13]: -14%; Activity [14]: -50%; Activity [17]: 50%
CCCc1ccc(OCc2ccccc2)c(OC)c1 | 12% | 0% | 17% | 4% | 15% | 3% | 34% | 
CCOC(=O)Cc1ccc(OCc2ccccc2OC)cc1 | -57% | 6% | 4% | 7% | -24% |  |  | Activity [4]: 6%; Activity [5]: 8%; Activity [6]: 20%; Activity [7]: -21%; Activity [8]: -16%; inhibition at 100 µM [18]: 48%; Activity [9]: -53%; Activity [10]: 5%; Activity [13]: -22%; Activity [14]: -64%; Activity [17]: 19%; inhibition at 100 µM [19]: 57%
CCC(C(=O)O)c1ccccc1 (centres undefined) |  |  |  |  |  |  |  | inhibition at 1000 µM [20]: 7%; inhibition at 1000 µM [21]: 30%
CCOC(=O)c1ccc(OCc2ccc(F)cc2)cc1 | -48% | 9% | 8% | 1% | -31% | 12% | 86% | 
CCOC(=O)Cc1ccc(OCc2ccc(C)cc2)cc1 | -68% | -18% | 20% | 5% | -45% |  |  | Activity [22]: 16%; Activity [23]: -8%; Activity [24]: 9%; Activity [25]: -49%; Activity [26]: 0%
CCOC(=O)c1ccc(OCc2ccc(C)c(C)c2)cc1 | -47% | -7% | 10% | 13% | -19% | 94% | 97% | 
CCOC(=O)Cc1ccc(OCc2ccc(Cl)cc2)cc1 | -91% | -10% | 14% | 8% | -28% | 59% | 68% | 

Source: ChEMBL document CHEMBL3272121, “Hypolipidemic analogues of ethyl 4-benzyloxybenzoate” (J Med Chem, 1977)
